Where two headings read alike, the source gives them in different places.
Tests used:
[1] = test system: cerebral blood flow; assay: Normal cerebral flow stream test; format: in vivo; settings: Rattus norvegicus, iv; urethane anesthetized; laser Doppler; read-out: active dose (increase in cerebral blood flow)
Protocol: 6. Normal cerebral flow stream test
Experiment was carried out using rats anesthetized with urethane. After a cannulas for blood pressure monitoring and that for drug administration were inserted into femoral artery and vein, respectively. Temporal bone was cut away on a brain stereotaxis apparatus and a probe for measurement of cerebral blood flow was placed on dura mater. The cerebral blood flow was measured using a laser Dopplar blood flow meter. Firstly, a solvent of the test compound was administered intravenously and then three doses of the compound were administered in order of dose every fifteen-minute intervals. When an average of increase in cerebral blood flow due to the test compound minus 2×SE was larger than that of change in cerebral blood flow due to the solvent, the dose was estimated as "active". The compound (1B) was active in the dose of not less than 3 mg/kg i.v.

[2] = test system: Mouse Cerebral Ischemia/Reperfusion; assay: in vivo Behavior test (Mouse Cerebral Ischemia/Reperfusion Test); design: species or system mouse (ICR strain, male); settings: ip
Protocol: Bilateral common carotid arteries of both sides of ICR strain male mice (about 8 weeks old) were occluded for 5 minutes while lightly anesthetized, then blood was reperfuged. The test compounds were intraperitoneally administered 10 minutes before occlusion and within 3 hours after reperfusion. Since a day after reperfusion, behavior disorder was evaluated by spontaneous motor activity of exploratory behavior, traction test and passive avoidance test. That is, spontaneous motor activity was evaluated as follows. Motor activity was measured by tilting cage method for 30 minutes since immediately after a mouse was placed in a measurement cage. If the motor activity was at least more than (average of spontaneous motion of the group received solvent) +2×SD, the compound was evaluated as "active." In traction test, both fore limbs of the mouse were placed on the horizontally stretched wire. If the mouse put its hind limb within 2 seconds, the compound was estimated as "active.". In passive avoidance test, a step-through type apparatus was used, and as acquisition trial of blood reperfusion, electrical shock (about 0.5 mA, 3 seconds) was given to the mice as soon as the whole body of mice entered the black room and on the next day test trial was carried out. The mouse which stayed in a light room for at least 300 seconds was estimated as an active example. In all tests, the test compound which provided at least 50% of active animals was determined as "active." The results are shown in Table 5.

[3] = test system: Brain microsomal fractions; assay: in vitro Anti-lipid peroxidation effect (TBAR production, Fe3+-ADP/NADPH); format: biochemical, rat (SD strain, male)
Method in brief: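 Male SD rat brain microsomes (0.2 mg protein) incubated 15 min at 37 °C with Fe3+ (0.1 mM)-ADP (0.5 mM) and 0.2 mM NADPH in HEPES/KCl pH 7.4, with or without compound. TBAR measured at 535 nm after TCA-TBA-HCl boiling; inhibition of TBAR production reported.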

[4] = test system: pig right coronary artery; assay: in vitro Ca-antagonism (high K+ induced 45Ca-influx); format: cell-based; settings: Sus scrofa, K+ 75 mM
Method in brief: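 Pig right coronary artery strips depolarized with 75 mM K^+ for 30 minutes in presence of compound at 10^-7, 10^-6, 10^-5 M. Extracellular ^45Ca chelated with EGTA and washed off; intracellular ^45Ca counted by scintillation after lysis at 100° C, giving % inhibition of K^+-induced uptake.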

[5] = test system: porcine coronary artery; assay: in vitro Coronary vasodilation effect (PGF2α-contracted strip); format: cell-based; settings: Sus scrofa; 25% of papaverine-induced relaxation; read-out: Coronary Vasodilation (ED25 μM)
Protocol: 3. in vitro Coronary vasodilation effect
The right portion of a porcine coronary artery was isolated, and cut into 3 mm wide strip which was suspended in a organ bath filled with 20 ml of Krebs--Henseleit solution (37° C.). During the experiment the bath solution was aerated with 95% O2 +5% Co2. The change in tension was measured using an isometric transducer. After load tension was stabilized, the preparation was contracted with PGF2α (10^-6 -[…]). After the contract level had stabilized the test compound was cumulatively applied from 10^-8 to 10^-5 M. Papaverine (10^-4 M) was used to obtain maximal relaxation at the end of the experiment. The result was expressed as the percentage of papverine-induced relaxation, and the concentration of the test compound which gave 25% relaxation of papaverine-induced relaxation was defined as ED25. The compound with low ED25 value has great coronary vasodilation effect.

[6] = test system: ventricular arrhythmia; assay: in vivo Ischemic heart/reperfusion test; settings: Rattus norvegicus, iv
Protocol: 4. in vivo Ischemic heart/reperfusion test
Experiment was carried out using rats anesthetized with pentobarbital under artificial respiration. After the forth rib was excised, heart was exposed by thoracotomy, and the thread was placed under the left coronary artery at it origin. Then, the heart was returned and a thread was passed in a tube. Compounds were applied through tail vein. After 10 minutes, the thread in the tube was pulled to occlude coronary artery. Five minutes after occlusion, the thread was loosened again for reperfusion. Then, ventricular arrhythmia was recorded on electrocardiogram (lead II), by sticking needle electrodes into a right fore-limb and a left hind-limb. Duration time of ventricular tachycardia and occurrence of ventricular fibrillation caused after reperfusion were compared between a group receiving the test compounds and a similarly treated vehicle group. If either of two parameters of the group that received the test compound became less than half of that of the group that received the vehicle, the test compound was estimated as "active".

[7] = test system: KCN-induced respiratory arrest; assay: in vivo Anti-anoxia effect (KCN lethal dose); design: species or system mouse (ICR strain, male); settings: Mus musculus, po; * methansulfonate; KCN 3.0 mg/kg
Protocol: 7. in vivo Anti-anoxia effect
A group (5 mice) of ICR strain male mice (about 8-week-old) were used. One or two hours after the test compounds were orally administered, a lethal dose (3.0 mg/kg) of KCN was administered into tail vein. A period of time to respiratory arrest and a survival rate were measured. The test compound which provided at least 50% of active example was determined as "active".

[8] = route cell empty (method: intraperitoneally)

SMILES | minimal effective dose [1] [mg/kg] | minimal effective dose [2] [mg/kg] | Anti-Lipid Peroxidation (% inhibition) 10 μM [3] [%] | Anti-Lipid Peroxidation (% inhibition) 50 μM [3] [%] | inhibition at 10 µM [4] [%] | EC25 [5] [nM] | minimal effective dose [2, 8] [mg/kg] | minimal effective dose ([6]; value marked # (methanesulfonate per footnote of Table 5)) [mg/kg] | minimal effective dose ([2]; # methanesulfonate, route cell empty (method: intraperitoneally)) [mg/kg] | minimal effective dose [7] [mg/kg] | minimal effective dose ([6]; read-out: Minimal Effective Dose (mg/kg, i.v.)) [mg/kg]
COc1cc(C(C)C)ccc(C2Sc3ccccc3N2CCc2ccccc2)c1=O (stereo not shown) [Compound 1B, 2-(2'-oxo-3'-methoxy-5'-isopropyl-3',5',7'-cycloheptatrienyl)-3-phenethylbenzothiazoline] | ≥ 3 | 0.1 | 91.8 | 93.1 | – | – | – | – | – | – | –
CC(C)c1ccc(CN2CCN(C(c3ccccc3)c3ccc(Cl)cc3)CC2)c(=O)c(O)c1 (stereo not shown) [Compound 1A, 7-[4-(4-chlorobenzhydryl)piperazino-1-methyl]-2-hydroxy4-isopropyl-2,4,6-cycloheptatrien-1-one] | – | – | 6.7 | < 21.3 | 44 | > 10000 | > 10 | – | – | – | –
COc1cc(C(C)C)ccc(CN2CCN(C(c3ccccc3)c3ccc(Cl)cc3)CC2)c1=O (stereo not shown) [Compound 2A, 7-[4-(4-chlorobenzhydryl)piperazino-1-methyl]-4-isopropyl-2-methoxy-2,4,6-cycloheptatrien-1-one] | – | – | 28.8 | 84.7 | 61 | 1800 | – | 0.3 | 3 | – | –
CC(C)c1ccc(CN2CCN(C(c3ccc(F)cc3)c3ccc(F)cc3)CC2)c(=O)c(NCCN(C)C)c1 [Compound 1C, 7-[4-(4,4'-difluorobenzhydryl)piperazino-1-methyl]-2-(N-2-dimethylaminoethylamino)-4-isopropyl-2,4,6-cycloheptatrien-1-one] | – | – | 59.4 | 95.3 | 81 | – | – | – | – | 100 | –
COc1cc(C(C)C)ccc(CN2CCN(C(c3ccc(F)cc3)c3ccc(F)cc3)CC2)c1=O [Compound 7A, 7-[4-(4,4'-difluorobenzhydryl)piperazino-1-methyl]-4-isopropyl-2-methoxy-2,4,6-cycloheptatrien-1-one] | – | – | 27.2 | 59.2 | 100 | 1900 | < 10 | – | – | – | < 5
